The target in data set [1] is T1, GIST430/654 cell line expressing mutated constitutively active cKIT receptor tyrosine kinase (Δ560-576 deletion and V654A point mutation) (Homo sapiens, UniProt P10721, DEL560-576/V654A).
T1 construct: endogenous in cells; host or cells: GIST430/654 cells
In words: Cellular cKIT autophosphorylation (phospho-Y307-cKIT, Luminex bead assay) in GIST430/654 cells. The following applies: compounds 45 min, read-out: GIST 430/654 IC50. Format: cell-based. In a few lines: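 GIST430 (Δ560-576) and imatinib-resistant GIST430/654 (plus V654A; grown with 100 nM imatinib) cells were plated in IMDM/15% FCS and treated next day with serially diluted compound for 45 min. Lysates were captured on anti-total-cKIT Luminex beads overnight at 4 °C and probed for phospho-Y307. IC50 was taken from percent of 0.3% DMSO control.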

Another data set deals with T2, c-Kit(V654A) (Homo sapiens, UniProt P10721, V654A).
T2 construct: recombinant human c-Kit, amino acids 544-end containing the V654A mutation; GST (N)
T2 sequence (P10721 544-976 V654A): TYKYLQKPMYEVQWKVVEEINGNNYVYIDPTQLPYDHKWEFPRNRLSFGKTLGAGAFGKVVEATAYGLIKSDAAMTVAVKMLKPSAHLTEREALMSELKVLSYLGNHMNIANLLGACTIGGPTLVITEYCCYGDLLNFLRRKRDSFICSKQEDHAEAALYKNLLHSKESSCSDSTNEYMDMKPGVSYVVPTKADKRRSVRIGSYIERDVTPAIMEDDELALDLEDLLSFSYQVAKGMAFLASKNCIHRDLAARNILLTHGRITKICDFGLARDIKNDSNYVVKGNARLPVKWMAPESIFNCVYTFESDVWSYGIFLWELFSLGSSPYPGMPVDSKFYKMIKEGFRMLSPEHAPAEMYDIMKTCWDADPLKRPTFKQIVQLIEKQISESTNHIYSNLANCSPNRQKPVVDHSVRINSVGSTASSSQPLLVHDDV
In words: c-Kit(V654A) assay (33P-ATP filter binding kinase assay). In kind it is biochemical. Particulars: recombinant human c-Kit aa 544-end V654A, ATP 200 μM. In a few lines:
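Radiometric filter-binding read-out: substrate 33P incorporation counted by scintillation after P30 filtermat washes in 75 mM phosphoric acid and methanol. Enzyme: N-GST recombinant human c-Kit aa 544-end carrying V654A.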

A short description of data set [2]: Determination of Efflux-Ratio (ER) in Caco-2 cells. The following applies: human, Caco-2, pH 7.4.

T1 sequence (P10721 with tags, fused parts or gaps DEL560-576/V654A): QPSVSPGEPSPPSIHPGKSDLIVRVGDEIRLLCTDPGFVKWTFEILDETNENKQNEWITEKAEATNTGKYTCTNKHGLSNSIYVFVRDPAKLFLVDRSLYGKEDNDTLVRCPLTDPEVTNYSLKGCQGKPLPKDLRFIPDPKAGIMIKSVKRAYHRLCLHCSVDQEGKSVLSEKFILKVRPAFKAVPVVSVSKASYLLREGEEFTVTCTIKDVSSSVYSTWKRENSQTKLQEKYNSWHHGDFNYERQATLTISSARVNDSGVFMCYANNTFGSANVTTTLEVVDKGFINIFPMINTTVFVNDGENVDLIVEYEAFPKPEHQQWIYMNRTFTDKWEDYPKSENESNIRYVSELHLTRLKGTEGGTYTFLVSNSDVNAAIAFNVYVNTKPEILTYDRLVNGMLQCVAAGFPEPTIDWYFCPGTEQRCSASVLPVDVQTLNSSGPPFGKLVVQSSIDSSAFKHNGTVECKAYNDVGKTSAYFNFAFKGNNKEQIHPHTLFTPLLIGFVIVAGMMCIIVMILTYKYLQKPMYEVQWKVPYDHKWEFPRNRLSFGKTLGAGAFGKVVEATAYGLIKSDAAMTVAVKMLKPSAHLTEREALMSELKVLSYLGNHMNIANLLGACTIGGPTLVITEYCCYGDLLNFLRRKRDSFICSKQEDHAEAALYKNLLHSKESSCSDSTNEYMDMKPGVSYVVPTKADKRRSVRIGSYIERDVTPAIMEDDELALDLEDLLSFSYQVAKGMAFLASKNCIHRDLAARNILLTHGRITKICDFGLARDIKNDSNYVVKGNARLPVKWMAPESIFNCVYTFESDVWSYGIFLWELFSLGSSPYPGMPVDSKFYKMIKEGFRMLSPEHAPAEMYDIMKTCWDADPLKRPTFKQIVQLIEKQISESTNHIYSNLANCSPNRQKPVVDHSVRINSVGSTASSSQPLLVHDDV

In the case of `COCCn1cc(-c2ccc(CNc3cc(-c4cnc5cc(OC)ccn45)ncn3)cc2)cn1` [A19, {4-[1-(2-methoxy-ethyl)-1H-pyrazol-4-yl]-benzyl}-[6-(7-methoxy-imidazo[1,2-a]pyridin-3-yl)-pyrimidin-4-yl]-amine], the results for the IC50 (in data set [1]; on c-Kit(V654A)) were 71 nM and 9.4 nM, respectively. In addition, the efflux ratio at 2 h, 1 μM in data set [2] is less than 15.
As for `Cc1noc(C2CN(CCOc3ccn4c(-c5cc(NCc6ccc(-c7cnn(C)c7)cc6)ncn5)cnc4c3)C2)n1` [A213, [6-(7-{2-[3-(3-methyl-[1,2,4]oxadiazol-5-yl)-azetidin-1-yl]-ethoxy}-imidazo[1,2-a]pyridin-3-yl)-pyrimidin-4-yl]-[4-(1-methyl-1H-pyrazol-4-yl)-benzyl]-amine], the results for the IC50 (in data set [1]; on c-Kit(V654A)) were 180 nM and 16 nM, respectively. The efflux ratio at 2 h, 1 μM in data set [2] is less than 15.
In the same order, the values of `Cn1ncc(-c2ccc(CNc3cc(-c4cnc5cc(OCCCN6CCOCC6)ccn45)ncn3)cc2)n1` [A133] are 30 nM, 2.6 nM and less than 15.
In the same order, the values of `Cn1cc(-c2ccc(CNc3cc(-c4cnc5cc(N6CCC7(COC7)C6)ccn45)ncn3)cc2)cn1` [A247, [4-(1-methyl-1H-pyrazol-4-yl)-benzyl]-{6-[7-(2-oxa-6-aza-spiro[3.4]oct-6-yl)-imidazo[1,2-a]pyridin-3-yl]-pyrimidin-4-yl}-amine] are 62 nM, 7.8 nM and less than 15.
Taken in the same sequence, the figures for `Cn1cc(-c2ccc(CNc3cc(-c4cnc5cc(OCC(C)(C)CN6CCCC6)ccn45)ncn3)cc2)cn1` [A91, {6-[7-(2,2-dimethyl-3-pyrrolidin-1-yl-propoxy)-imidazo[1,2-a]pyridin-3-yl]-pyrimidin-4-yl}-[4-(1-methyl-1H-pyrazol-4-yl)-benzyl]-amine] were 76 nM, 8.6 nM and less than 15.
As for `Cn1cc(-c2ccc(CNc3cc(-c4cnc5cc(OCCN6CC(S(C)(=O)=O)C6)ccn45)ncn3)cc2)cn1` [A215, (6-{7-[2-(3-methanesulfonyl-azetidin-1-yl)-ethoxy]-imidazo[1,2-a]pyridin-3-yl}-pyrimidin-4-yl)-[4-(1-methyl-1H-pyrazol-4-yl)-benzyl]-amine], the figures for the IC50 (in data set [1]; at c-Kit(V654A)) were 120 nM and 10 nM, respectively. For the same compound, the efflux ratio at 2 h, 1 μM in data set [2] is greater than 50.
Turning to `Cn1cc(-c2ccc(CNc3cc(-c4cnc5cc(OCCN6CCC(F)(F)CC6)ccn45)ncn3)cc2)cn1` [A202, (6-{7-[2-(4,4-difluoro-piperidin-1-yl)-ethoxy]-imidazo[1,2-a]pyridin-3-yl}-pyrimidin-4-yl)-[4-(1-methyl-1H-pyrazol-4-yl)-benzyl]-amine], the IC50 in data set [1] was 200 nM; at c-Kit(V654A), 17 nM. Besides, the efflux ratio at 2 h, 1 μM in data set [2] is less than 15.
Take `Cn1cc(-c2ccc(CNc3cc(-c4cnc5cc(OCCS(C)(=O)=O)ccn45)ncn3)cc2)cn1` [A224, {6-[7-(2-methanesulfonyl-ethoxy)-imidazo[1,2-a]pyridin-3-yl]-pyrimidin-4-yl}-[4-(1-methyl-1H-pyrazol-4-yl)-benzyl]-amine]: the IC50 in data set [1] was determined as 99 nM; at c-Kit(V654A), 6.5 nM. Also, in data set [2], the efflux ratio at 2 h, 1 μM is 15 to 50.
For `CN1CCC(Oc2ccn3c(-c4cc(NCc5ccc(-c6cnn(C)c6)cc5)ncn4)cnc3c2)CC1` [A63, {6-[7-(1-methyl-piperidin-4-yloxy)-imidazo[1,2-a]pyridin-3-yl]-pyrimidin-4-yl}-[4-(1-methyl-1H-pyrazol-4-yl)-benzyl]-amine], the IC50 is 84 nM in data set [1] and 12 nM on c-Kit(V654A). Besides, the efflux ratio at 2 h, 1 μM in data set [2] is less than 15.
Regarding `COc1ccn2c(-c3cc(OCc4ccc(-c5cnn(C)c5)cc4)ncn3)cnc2c1` [A158, 7-methoxy-3-{6-[4-(1-methyl-1H-pyrazol-4-yl)-benzyloxy]-pyrimidin-4-yl}-imidazo[1,2-a]pyridine], the IC50 in data set [1] turned out to be 140 nM; at c-Kit(V654A), 13 nM. The efflux ratio at 2 h, 1 μM in data set [2] is less than 15.
As to `CN1CCN(CCOc2ccn3c(-c4cc(NCc5ccc(-c6cnn(C)c6)cc5)ncn4)cnc3c2)CC1` [A61, (6-{7-[2-(4-methyl-piperazin-1-yl)-ethoxy]-imidazo[1,2-a]pyridin-3-yl}-pyrimidin-4-yl)-[4-(1-methyl-1H-pyrazol-4-yl)-benzyl]-amine], the IC50 in data set [1] is 34 nM; on c-Kit(V654A) it was 6.5 nM. The efflux ratio at 2 h, 1 μM in data set [2] was less than 15.
Take `Cn1cc(-c2ccc(CNc3cc(-c4cnc5cc(OCCCN6CCN(C7CC7)CC6)ccn45)ncn3)cc2)cn1` [A243, (6-{7-[3-(4-cyclopropyl-piperazin-1-yl)-propoxy]-imidazo[1,2-a]pyridin-3-yl}-pyrimidin-4-yl)-[4-(1-methyl-1H-pyrazol-4-yl)-benzyl]-amine]: the IC50 amounted to 40 nM in data set [1] and 6.7 nM on c-Kit(V654A). For the same compound, the efflux ratio at 2 h, 1 μM in data set [2] is less than 15.
In the same order, the values of `CC(Nc1cc(-c2cnc3cc(OCCCN4CCCC4)ccn23)ncn1)c1ccc(-c2cnn(C)c2)cc1` (stereo not drawn) [A250, {1-[4-(1-methyl-1H-pyrazol-4-yl)-phenyl]-ethyl}-{6-[7-(3-pyrrolidin-1-yl-propoxy)-imidazo[1,2-a]pyridin-3-yl]-pyrimidin-4-yl}-amine] are 410 nM, 110 nM and greater than 50.
In the same order, the values of `Cn1ncc(-c2ccc(CNc3cc(-c4cnc5cc(OCC6CCNCC6)ccn45)ncn3)cc2)n1` [A165] are 57 nM, 2 nM and greater than 50.
Taken in the same sequence, the figures for `Cn1ncc(-c2ccc(CNc3cc(-c4cnc5cc(OCCCS(C)(=O)=O)ccn45)ncn3)cc2)n1` [A231, {6-[7-(3-methanesulfonyl-propoxy)-imidazo[1,2-a]pyridin-3-yl]-pyrimidin-4-yl}-[4-(2-methyl-2H-[1,2,3]triazol-4-yl)-benzyl]-amine] were 250 nM, 15 nM and 15 to 50.
As for `Cn1cc(-c2ccc(CNc3cc(-c4cnc5cc(OCCN6CCOC(F)(F)C6)ccn45)ncn3)cc2)cn1` [A214, (6-{7-[2-(2,2-difluoro-morpholin-4-yl)-ethoxy]-imidazo[1,2-a]pyridin-3-yl}-pyrimidin-4-yl)-[4-(1-methyl-1H-pyrazol-4-yl)-benzyl]-amine], the values for the IC50 (in data set [1]; on c-Kit(V654A)) were 180 nM and 21 nM, respectively. In addition, the efflux ratio at 2 h, 1 μM in data set [2] was less than 15.
For the compound `Cn1cc(-c2ccc(CNc3cc(-c4cnc5cc(OCC6CCNCC6)ccn45)ncn3)cc2)cn1` [A166, [4-(1-methyl-1H-pyrazol-4-yl)-benzyl]-{6-[7-(piperidin-4-ylmethoxy)-imidazo[1,2-a]pyridin-3-yl]-pyrimidin-4-yl}-amine], the IC50 in data set [1] turned out to be 120 nM; at c-Kit(V654A), 4 nM. In addition, the efflux ratio at 2 h, 1 μM in data set [2] was greater than 50.
In the same order, the values of `CN(CC#N)CCOc1ccn2c(-c3cc(NCc4ccc(-c5cnn(C)c5)cc4)ncn3)cnc2c1` [A205, {methyl-[2-(3-{6-[4-(1-methyl-1H-pyrazol-4-yl)-benzylamino]-pyrimidin-4-yl}-imidazo[1,2-a]pyridin-7-yloxy)-ethyl]-amino}-acetonitrile] are 110 nM, 10 nM and less than 15.

The term efflux ratio denotes a quotient of directional permeabilities that is used to spot active efflux.

The values are drawn from patent US12655142B2 (Merck Patent GmbH, priority 2019, dated 2026).
